The source of these data is patent US8354436B2 (4SC Discovery GmbH, priority 2011, dated 2013).

The first assay has as its system PBMC from healthy human donors. Kind of assay: T cell proliferation assay (PHA-stimulated human PBMC, BrdU ELISA). The class given is cell-based. The note with it: PHA-stimulated human PBMC, 48 hours, column D, read-out: IC50 (Tcell proliferation). The procedure: Cell proliferation was analysed using the BrdU based cell proliferation ELISA from Roche (Mannheim, Germany) according to the manufacturer's instructions. T Cell Proliferation Assay Peripheral blood mononuclear cells (PBMC) from healthy human donors were isolated by centrifugation over Ficoll-Hypaque (Sigma-Aldrich, Germany) according to manufacturer's instructions. Purified PBMC were washed twice with PBS and resuspended in RPMI1640 culture medium supplemented with 10% dialyzed heat inactivated fetal calf serum, 1.5 mM L-glutamine, 100 U penicillin/ml, and […] (all from PAN Biotech, Aidenbach, Germany). For stimulation, PBMC were seeded at 1×10^5 cells/well, activated with 2 μg/ml phytohaemagglutinin (PHA, Sigma) and incubated with the test compound. After 48 hours proliferation was measured using the BrdU based cell proliferation ELISA from Roche (Mannheim, Germany) according to the manual.
With `COC(=O)c1c(-c2c(F)cccc2Cl)noc1-c1cnn(-c2cccc(C(F)(F)F)c2)c1C(F)(F)F` [Example I-82, methyl 3-(2-chloro-6-fluorophenyl)-5-(5-(trifluoromethyl)-1-(3-(trifluoromethyl)phenyl)-1H-pyrazol-4-yl)isoxazole-4-carboxylate], the IC50 fell in the range of 1000 to 10000 nM.

Regarding `COC(=O)c1c(-c2c(F)cccc2Cl)noc1-c1cnn(-c2nccc(C(F)(F)F)n2)c1C(F)(F)F` [Example I-67, methyl 3-(2-chloro-6-fluorophenyl)-5-(5-(trifluoromethyl)-1-(4-(trifluoromethyl)pyrimidin-2-yl)-1H-pyrazol-4-yl)isoxazole-4-carboxylate], the IC50 lay in the range of 100 to 1000 nM.

For the compound `COC(=O)c1c(-c2c(F)cccc2Cl)noc1-c1cnn(-c2ccc(OC(F)(F)F)cc2)c1C(F)(F)F` [Example I-33, methyl 3-(2-chloro-6-fluorophenyl)-5-(1-(4-(trifluoromethoxy)phenyl)-5-(trifluoromethyl)-1H-pyrazol-4-yl)isoxazole-4-carboxylate], the IC50 was 1000 to 10000 nM.

As for `COC(=O)c1c(-c2ccc(OC)cc2)noc1-c1cnn(-c2cccc(F)c2)c1C(F)(F)F` [Example I-107, methyl 5-(1-(3-fluorophenyl)-5-(trifluoromethyl)-1H-pyrazol-4-yl)-3-(4-methoxyphenyl)isoxazole-4-carboxylate], the IC50 was 1000 to 10000 nM.

As for `O=C(O)c1c(-c2ccccc2F)noc1-c1cnn(-c2cccc(F)c2)c1C(F)(F)F` [Example I-91, 3-(2-fluorophenyl)-5-(1-(3-fluorophenyl)-5-(trifluoromethyl)-1H-pyrazol-4-yl)isoxazole-4-carboxylic acid], the IC50 was 1000 to 10000 nM.

As for `COC(=O)c1c(-c2ccc(Cl)c(Cl)c2)noc1-c1cnn(-c2cccc(F)c2)c1C(F)(F)F` [Example I-97, methyl 3-(3,4-dichlorophenyl)-5-(1-(3-fluorophenyl)-5-(trifluoromethyl)-1H-pyrazol-4-yl)isoxazole-4-carboxylate], the IC50 is 1000 to 10000 nM.

In the case of `CCOC(=O)c1c(-c2onc(-c3c(F)cccc3Cl)c2C(=O)OC)cnn1-c1ccccc1` [Example I-34, methyl 3-(2-chloro-6-fluorophenyl)-5-(5-(ethoxycarbonyl)-1-phenyl-1Hpyrazol-4-yl)isoxazole-4-carboxylate], the IC50 lay in the range of 1000 to 10000 nM.

Take `COC(=O)c1c(-c2ccccc2)noc1-c1cnn(-c2ccc(OC(F)(F)F)cc2)c1C(F)(F)F` [Example I-74, methyl 3-phenyl-5-(1-(4-(trifluoromethoxy)phenyl)-5-(trifluoromethyl)-1H-pyrazol-4-yl)isoxazole-4-carboxylate]: the IC50 is 1000 to 10000 nM.

For the next assay, the system named is IFN-γ. In words: IFN-γ production by PHA-stimulated human PBMC (OptEIA human IFN-g ELISA). Particulars: PHA-stimulated human PBMC, 48 hours; column C; read-out: IC50 (IFNγ). It counts as cell-based. How it is done:
Analysis of Proliferation of and Cytokine Production by Human PBMC Stimulated with PHA
Peripheral blood mononuclear cells (PBMC) from healthy human donors were purified using Accuspin™ System-Histopaque-1077 (Sigma) according to the protocol recommended by the manufacturer. Purified PBMC were then washed twice with phosphate-buffered saline (PBS) and resuspended in RPMI1640 culture medium supplemented with 10% dialyzed heat inactivated fetal calf serum, 1.5 mM L-glutamine, 100 U penicillin/ml, and […] (all from PAN Biotech, Aidenbach, Germany). For stimulation, PBMC were seeded at 1×10^5 cells/well, activated with 2 μg/ml phytohaemagglutinin (PHA, Sigma) and incubated with the test compounds for 48 hours. IL-17A, IL-17F and INF-γ were then determined in the culture supernatant using a Luminex BioPlex system, following the manufacturer's instructions (BioRad, Munich, Germany). For screening, compounds were used at 10, 1, 0.1 and 0.01 μM. To determine the IC50, compounds were titrated semilogarithmically.
Cytokines were determined in the aforementioned culture supernatant using the following methods: IL-17AA/AF was measured using the Luminex BioPlex system (BioRad, Munich, Germany); IL-17AA using the human homodimer IL-17A ELISA Ready Set Go Kit from eBioscience (Frankfurt, Germany); IL-17FF using the human IL-17F ELI-Pair from Hölzel DiagnosticaGmBH (Köln, Germany); and IFN-γ using the OptEIA human IFN-g ELISA from BD Bioscience (Heidelberg, Germany), all following the manufacturer's instructions.
Take `Fc1ccc(-n2ncc(-c3cc(-c4c(F)cccc4Cl)no3)c2C(F)(F)F)cc1` [Example I-25, 3-(2-chloro-6-fluorophenyl)-5-(1-(4-fluorophenyl)-5-(trifluoromethyl)-1H-pyrazol-4-yl)isoxazole]: the IC50 was in the range of 1000 to 10000 nM.

With `CCOC(=O)c1c(-c2onc(-c3c(F)cccc3Cl)c2C(=O)OC)cnn1-c1ccc(OC(F)(F)F)cc1` [Example I-45, methyl 3-(2-chloro-6-fluoro-phenyl)-5-(5-(ethoxycarbonyl)-1-(4-(trifluoromethoxy)phenyl)1H-pyrazol-4-yl)isoxazole-4-carboxylate], the IC50 fell in the range of 1000 to 10000 nM.

Regarding `CCOC(=O)c1c(-c2ccc(Cl)c(Cl)c2)noc1-c1cnn(-c2cccc(F)c2)c1C(F)(F)F` [Example I-99, ethyl 3-(3,4-dichlorophenyl)-5-(1-(3-fluorophenyl)-5-(trifluoromethyl)-1H-pyrazol-4-yl)isoxazole-4-carboxylate], the IC50 was 1000 to 10000 nM.

On to `COC(=O)c1c(-c2c(F)cccc2Cl)noc1-c1cnn(CCN2CCCCC2)c1C(F)(F)F` [Example I-104, methyl 3-(2-chloro-6-fluorophenyl)-5-(1-(2-(piperidin-1-yl)ethyl)-5-(trifluoromethyl)-1H-pyrazol-4-yl)isoxazole-4-carboxylate], for which the IC50 fell in the range of 1000 to 10000 nM.

Take `COC(=O)c1c(-c2c(F)cccc2Cl)noc1-c1cnn(-c2ccc(OC)cc2)c1C(F)(F)F` [Example I-79]: the IC50 fell in the range of 1000 to 10000 nM.

As for `CCOC(=O)c1c(-c2onc(-c3c(F)cccc3Cl)c2C(=O)OC)cnn1-c1c(F)c(F)cc(F)c1F` [Example I-38, methyl 3-(2-chloro-6-fluorophenyl)-5-(5(ethoxycarbonyl)-1-(2,3,5,6-tetrafluorophenyl)-1H-pyrazol-4-yl)isoxazole-4-carboxylate], the IC50 fell in the range of 1000 to 10000 nM.

With `Fc1ccccc1-n1ncc(-c2onc(-c3c(F)cccc3Cl)c2C(=S)N2CCOCC2)c1C(F)(F)F` [Example I-123, (3-(2-chloro-6-fluorophenyl)-5-(1-(2-fluorophenyl)-5-(trifluoromethyl)-1H-pyrazol-4-yl)isoxazol-4-yl)(morpholino)meth-anethione], the IC50 lay within 1000 to 10000 nM.

Turning to `CC(C)Cn1ncc(-c2onc(-c3c(F)cccc3Cl)c2C(=O)O)c1C(F)(F)F` [IB-19, 3-(2-chloro-6-fluorophenyl)-5-(1-isobutyl-5-(trifluoromethyl)-1H-pyrazol-4-yl)isoxazole-4-carboxylic acid], the IC50 was 1000 to 10000 nM.

Take `CCOC(=O)c1c(-c2onc(-c3c(F)cccc3Cl)c2C(=O)OC)cnn1-c1ccsc1C(=O)OC` [Example I-15, methyl 3-(2-chloro-6-fluorophenyl)-5-(5-(ethoxycarbonyl)-1-(2-(methoxycarbonyl)thiophen-3-yl)-1H-pyrazol-4-yl)isoxazole-4-carboxylate]: the IC50 was in the range of 1000 to 10000 nM.

Consider `CNC(=O)c1c(-c2ccc(Cl)cc2)noc1-c1cnn(-c2cccc(F)c2)c1C(F)(F)F` [Example I-75, 3-(4-chlorophenyl)-5-(1-(3-fluorophenyl)-5-(trifluoromethyl)-1H-pyrazol-4-yl)-N-methylisoxazole-4-carboxamide], for which the IC50 fell in the range of 1000 to 10000 nM.

With `COC(=O)c1c(-c2c(F)cccc2Cl)noc1-c1cnn(CCO)c1C(F)(F)F` [Example I-83, methyl 3-(2-chloro-6-fluorophenyl)-5-(1-(2-hydroxyethyl)-5-(trifluoromethyl)-1H-pyrazol-4-yl)isoxazole-4-carboxylate], the IC50 was in the range of 1000 to 10000 nM.

`CC(=O)NNC(=O)c1c(-c2c(F)cccc2Cl)noc1-c1cnn(-c2ccccc2F)c1C(F)(F)F` [Example I-142, N′-acetyl-3-(2-chloro-6-fluorophenyl)-5-(1-(2-fluorophenyl)-5-(trifluoromethyl)-1H-pyrazol-4-yl)isoxazole-4-carbohydrazide]: the IC50 was in the range of 1000 to 10000 nM.

For `COC(=O)c1c(-c2c(F)cccc2Cl)noc1-c1cnn(Cc2ccccn2)c1C(F)(F)F` [Example I-101, methyl 3-(2-chloro-6-fluorophenyl)-5-(1-(pyridin-2-ylmethyl)-5-(trifluoromethyl)-1H-pyrazol-4-yl)isoxazole-4-carboxylate], the IC50 was in the range of 1000 to 10000 nM.

Take `O=C(O)c1c(-c2cccc(F)c2)noc1-c1cnn(-c2cccc(F)c2)c1C(F)(F)F` [Example I-114, 3-(3-fluorophenyl)-5-(1-(3-fluorophenyl)-5-(trifluoromethyl)-1H-pyrazol-4-yl)isoxazole-4-carboxylic acid]: the IC50 lay within 1000 to 10000 nM.

Consider `COC(=O)c1c(-c2c(F)cccc2Cl)noc1-c1cnn(-c2ccccc2Br)c1C(F)(F)F` [Example I-80, methyl 5-(1-(2-bromophenyl)-5-(trifluoromethyl)-1H-pyrazol-4-yl)-3-(2-chloro-6-fluorophenyl)isoxazole-4-carboxylate], for which the IC50 is 1000 to 10000 nM.

For the compound `CCOC(=O)c1c(-c2onc(-c3c(F)cccc3Cl)c2C(=O)OC)cnn1-c1ccccc1OC` [Example I-40], the IC50 fell in the range of 1000 to 10000 nM.

With `COc1ccccc1-n1ncc(-c2onc(-c3c(F)cccc3Cl)c2Br)c1C(F)(F)F` [IB-23, 4-bromo-3-(2-chloro-6-fluorophenyl)-5-(1-(2-methoxyphenyl)-5-(trifluoromethyl)-1H-pyrazol-4-yl)isoxazole], the IC50 fell in the range of 1000 to 10000 nM.

The assay is the same for the next values; noted with them: human PBMC, 2 μg/ml PHA, 48 hours; read-out: C: IC50 (IFNγ).
Take `Fc1cccc(Cl)c1-c1noc(-c2cnn(-c3ccccc3Cl)c2C(F)(F)F)c1-c1nnco1` [Example B-14, 2-(3-(2-chloro-6-fluorophenyl)-5-(1-(2-chlorophenyl)-5-(trifluoromethyl)-1H-pyrazol-4-yl)isoxazol-4-yl)-1,3,4-oxadiazole]: the IC50 lay within 1000 to 10000 nM.
